Results as given in patent US10059733B2 (NUCORION PHARMACEUTICALS, INC., priority 2014, dated 2018).

Assays:
[1] = system: Huh7; assay: TC50 assay with human cancer cell lines, 96 h: Huh7; type: cell-based; details: Huh-7, 96 h, read-out: TC50 Huh7 (μM)
Description: (§3) Huh7 cells were maintained at 37° C. in a humidified atmosphere at 5% CO2 in DMEM containing 10% FBS. […] The cells were then treated with each compound at concentrations ranging from 500 μM to 0 μM in triplicate in DMEM media containing 2% FBS and 0.5% DMSO and without phenol red. After 48 h of treatment at 37° C., the relative number of living cells in each well was determined by using the CellTiter 96 system (Promega) according to the manufacturer's instructions. The 3-(4,5-dimethylthiazol-2-yl)-5-(3-carboxymethoxyphenyl)-2-(4-sulfophenyl)-2H-tetrazolium (MTS) and phenazine methosulfate (PMS) reagents were added to each well of the 96-well plate and the plate was incubated at 37° C. for approximately 2 h. The absorbance at 490 nm and 650 nm in each well was then determined by using a Flexstation 3 microplate reader (Molecular Dynamics). The absorbance determined at 650 nm was then subtracted from the absorbance determined at 490 nm to correct for light scattering. The corrected absorbance values representing the relative number of live cells in each condition were then plotted as a function of compound concentration, and the data were then fit to the following sigmoidal Emax equation by using Kaleidagraph: y=(Emax*x^Slope)/(TC50^Slope+x^Slope) where y is the relative corrected absorbance value, Emax is the maximum relative inhibition, x is the compound concentration, TC50 is the concentration of the compound at which the total cell population is reduced by 50%, and Slope is the slope of the curve.
(§4) Huh7, HEPG2, HEK293, MCF-7 and BxPC3 cell lines were maintained at 37° C. in a humidified atmosphere at 5% CO2 in DMEM containing 10% FBS. […] The cells were then treated with each compound at concentrations ranging from 500 μM to 0 μM in triplicate in DMEM media containing 2% FBS and 0.5% DMSO and without phenol red.

[2] = TC50 assay in Huh7 cells, 48 h (CellTiter 96); details: human
Description: (§1) Huh7 cells were maintained at 37° C. in a humidified atmosphere at 5% CO2 in DMEM containing 10% FBS. […] The cells were then treated with each compound at concentrations ranging from 500 μM to 0 μM in triplicate in DMEM media containing 2% FBS and 0.5% DMSO and without phenol red. After 48 h of treatment at 37° C., the relative number of living cells in each well was determined by using the CellTiter 96 system (Promega) according to the manufacturer's instructions. The 3-(4,5-dimethylthiazol-2-yl)-5-(3-carboxymethoxyphenyl)-2-(4-sulfophenyl)-2H-tetrazolium (MTS) and phenazine methosulfate (PMS) reagents were added to each well of the 96-well plate and the plate was incubated at 37° C. for approximately 2 h. The absorbance at 490 nm and 650 nm in each well was then determined by using a Flexstation 3 microplate reader ([…]). The absorbance determined at 650 nm was then subtracted from the absorbance determined at 490 nm to correct for light scattering. The corrected absorbance values representing the relative number of live cells in each condition were then plotted as a function of compound concentration, and the data were then fit to the following sigmoidal Emax equation by using Kaleidagraph: y=(Emax*x^Slope)/(TC50^Slope+x^Slope) where y is the relative corrected absorbance value, Emax is the maximum relative inhibition, x is the compound concentration, TC50 is the concentration of the compound at which the total cell population is reduced by 50%, and Slope is the slope of the curve.
The data in Table 1 were determined for cells exposed to drug for 48 h. The IC50 is the concentration of each compound necessary to inhibit the replication of the HCV luciferase replicon to 50%. “TC50,” refers to toxic concentration necessary to reduce the cell population by 50%. All compounds were purified by HPLC.

[3] = Tolerability of single oral dosage in HCV-infected chimpanzees; type: in vivo, chimpanzee; details: single oral dosage 200 mg
Description: (§2) Via oral gavage, two HCV-infected chimpanzees I (male, 56.49 kg and 11 years old; genotype 1b HCV) and II (male, 61.91 kg and 34 years old; genotype 1a HCV) each received a single dosage of 200 mg of Compound 1 in Formulation I while the HCV-infected chimpanzee III (male, 56.19 kg and 18 years old; genotype 1a HCV) was administered a single dosage of 260 mg of the non-phosphorylated analog of Compound 1 (Table 1) in Formulation I. After 12 hours, the HCV viral titer decreased from 24,100 to 10,200 IU/ml (or 58% drop) in Chimpanzee I, from 38,500 to 27,000 IU/ml (or 30% drop) in Chimpanzee II, and from 154,000 to 142,000 IU/ml (or 8% drop) in Chimpanzee III. […] All animals were fasted overnight prior to dosing and a minimum of 2 hours prior to scheduled blood sample collections. Viral load determinations were performed on plasma samples using the HCV TaqMan assay (COBAS® AmpliPrep/COBAS® TaqMan® HCV Test, Version 2, Test Code 1220) for quantitative analysis. […] There were no adverse effects, illness, nor distress seen with the three chimpanzees during the study requiring veterinarian intervention.

[4] = pH stability in aqueous buffer (HPLC/uv)
Description: In order for a prodrug to be orally bioavailable, it must be stable over a wide range of pH values. […] The relative amount of intact prodrug was then determined by first separating the intact prodrug from any potential degradation products by using reverse-phase high performance liquid chromatography (HPLC) and subsequently quantifying the relative amount of remaining prodrug by uv spectrophotometry.

[5] = system: genotype 1b HCV; assay: Oral administration to HCV-infected chimpanzee, viral load (genotype 1b); type: in vivo; details: Chimpanzee I
Description: as §2

[6] = system: HCV luciferase replicon; assay: IC50 assay: inhibition of the HCV luciferase replicon in Huh7 cells; type: cell-based
Description: After 48 h of treatment at 37° C., the media in each well was removed, the cells were gently washed once with phosphate buffered saline (PBS) and subsequently lysed by the addition of Glo Lysis Buffer (Promega). After a 15 min incubation at room temperature to allow for complete cell lysis, Bright-Glo luciferase reagent (Promega) was added to each well and the relative luciferase activity in each well was determined by using a Glowmax 96 microplate luminometer (Promega).
IC50 values determined using the above methods for inhibition of the HCV luciferase replicon in Huh7 cells are set forth in Table 1.
All compounds were purified by HPLC.

[7] = system: BxPC3; assay: TC50 assay with human cancer cell lines, 96 h: BxPC3; type: cell-based; details: BXPC-3, 96 h, read-out: TC50 BxPC3 (μM)
Description: as §3, §4

[8] = system: PK9 cells; assay: TC50 assay in PK9 cells, 48 h; details: Homo sapiens, PK9, 48 h, read-out: TC50 (μM) in PK9 cells at 48 hr
Description: as §1
PK9 and RPK9 cells were maintained at 37° C. in a humidified atmosphere at 5% CO2 in Roswell Park Memorial Institute (RPMI) media containing 10% FBS. […] The cells were then treated with each compound at concentrations ranging from […] to 0 μM in triplicate in RPMI media containing 2% FBS and 0.5% DMSO and without phenol red. […] The RPK9 cells were derived from the parental PK9 cell line, and are deficient for dCK activity due to the partial deletion of the dCK gene.

[9] = system: genotype 1a HCV; assay: Oral administration to HCV-infected chimpanzees, viral load (genotype 1a); type: in vivo, chimpanzee
Description: as §2

[10] = system: HEK293; assay: TC50 assay with human cancer cell lines, 96 h: HEK293; type: cell-based; details: HEK293, 96 h, read-out: TC50 HEK293 (μM)
Description: as §3, §4

[11] = In vivo toxicology assessment in mice; set-up: species or system CD-1 ICR mice; details: oral gavage 20 mg/kg in Formulation I
Description: All in vivo toxicology assays were performed with CD-1 ICR mice (female, 4-6 week old; 20-30 gram body weight). Compound 1 (Table 1) was first dissolved in Formulation I containing 5% dimethyl sulfoxide (DMSO), 20% solutol, 20% PEG 400, and 55% sodium phosphate (50 mM, pH 6.0). Five mice were administered with Compound 1 in Formulation I via oral gavage at a dosage of 20 mg/kg while two other mice were orally treated with Formulation I alone (no inhibitor).

Compound: CCCC(CCC)C(=O)Nc1ccn([C@@H]2O[C@H](CO[P@@](=O)(N[C@@H](C)C(=O)OC(C)C)Oc3ccccc3)[C@@H](O)C2(F)F)c(=O)n1 [Compound 1, (S)-isopropyl 2-(((S)-(((2R,3R,5R)-4,4-difluoro-3-hydroxy-5-(2-oxo-4-(2-propylpentanamido)pyrimidin-1(2H)-yl)tetrahydrofuran-2-yl)methoxy)(phenoxy)phosphoryl)amino)propanoate]
- CC50 [1]: 3.28 ± 0.57 µM
- CC50 at 48 h [2]: 17.4 ± 3.4 µM
- tolerability [3]: well tolerated
- % of Compound 1 remaining ([4]; Pretreatment): 100%
- % of Compound 1 remaining ([4]; pH 1, aqueous buffer, 40° C., 4 hours, 200 μM): 58%
- % of Compound 1 remaining ([4]; pH 2, aqueous buffer, 40° C., 4 hours, 200 μM): 85%
- % of Compound 1 remaining ([4]; pH 4, aqueous buffer, 40° C., 4 hours, 200 μM): 92%
- % of Compound 1 remaining ([4]; pH 6, aqueous buffer, 40° C., 4 hours, 200 μM): 100%
- % of Compound 1 remaining ([4]; pH 8, aqueous buffer, 40° C., 4 hours, 200 μM): 47%
- drop of HCV viral titer after 12 hours ([5]; single oral dosage 200 mg): 58%
- HCV viral titer after 12 hours ([5]; single oral dosage 200 mg in Formulation I, titer before 24,100 IU/ml): 10,200 IU/ml
- IC50 ([6]; Hepatitis C virus, Huh-7, 48 h): 0.0884 ± 0.0133 µM
- Therapeutic Index (TC50/IC50) ([6]; TC50 in Huh7 / IC50 HCV replicon, 48 h): 198
- CC50 [7]: 7.01 ± 0.97 µM
- CC50 [8]: 25.2 ± 13.6 µM
- drop of HCV viral titer after 12 hours ([9]; Chimpanzee II, single oral dosage 200 mg): 30%
- HCV viral titer after 12 hours ([9]; Chimpanzee II, single oral dosage 200 mg in Formulation I, titer before 38,500 IU/ml): 27,000 IU/ml
- effectiveness in inhibiting HCV in chimpanzees (comparison) ([9]; single oral dosage, 12 hours): more effective than its non-phosphorylated analog
- CC50 [10]: 4.1 ± 0.5 µM
- internal organs after sacrifice ([11]; after Day 7): healthy with no abnormality
- signs of toxicity ([11]; seven day period of observation): no signs of toxicity
